{"source": "patent US10173991B2", "about": "“Sulfone amide linked benzothiazole inhibitors of endothelial lipase” (BRISTOL-MYERS SQUIBB COMPANY, priority 2014, dated 2019)", "data": [{"molecular_target": "Endothelial lipase (EL) (Homo sapiens (Human), UniProt Q9Y5X9)", "sequence (Q9Y5X9 21-500)": "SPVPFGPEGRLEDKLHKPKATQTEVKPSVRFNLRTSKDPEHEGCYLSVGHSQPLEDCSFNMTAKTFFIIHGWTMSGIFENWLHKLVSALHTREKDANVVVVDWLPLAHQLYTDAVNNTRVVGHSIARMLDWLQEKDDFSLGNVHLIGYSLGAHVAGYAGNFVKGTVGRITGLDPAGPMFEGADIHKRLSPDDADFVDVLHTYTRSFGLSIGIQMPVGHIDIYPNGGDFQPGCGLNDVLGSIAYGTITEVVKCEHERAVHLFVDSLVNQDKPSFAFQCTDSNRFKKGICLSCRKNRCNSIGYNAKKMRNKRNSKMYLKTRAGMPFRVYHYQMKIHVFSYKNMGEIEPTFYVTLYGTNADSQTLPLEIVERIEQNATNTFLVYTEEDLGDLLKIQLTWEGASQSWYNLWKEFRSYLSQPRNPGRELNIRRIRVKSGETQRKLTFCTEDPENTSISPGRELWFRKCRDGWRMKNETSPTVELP", "experiment": "Endothelial lipase (EL) enzymatic assay with fluorescent substrate A10070 in DMPG vesicles", "format": "biochemical", "conditions": "not given", "summary_of_the_method": "(§1)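 Vesicles prepared: A10070 dried with DMPG, resuspended in HEPES pH 8.0/NaCl/EDTA, sonicated on ice. Enzyme incubated with compound 30 min at 37° C. Reaction started with 1:10 diluted vesicles. Fluorescence (490/530 nm) followed 60 min; slope from 300–900 secs gives rate.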", "units": {"IC50": "µM"}, "values": [{"smiles": "COCCNC(=O)CNC(=O)C(c1nc2ccc(-c3ccn(C)c(=O)c3)cc2s1)S(=O)(=O)c1ccc(F)cc1", "note": "(centres unmarked) [Example 463, 2-(4-fluorobenze-nesulfonyl)-N-{[(2-methoxyethyl)carbamoyl]methyl}-2-[6-(1-methyl-2-oxo-1,2-dihydropyridin-4-yl)-1,3-benzothiazol-2-yl]acetamide]", "IC50": 0.024}, {"smiles": "CC(C)OCCNC(=O)CNC(=O)C(c1nc2ccc(-c3ccn(C)c(=O)c3)cc2s1)S(=O)(=O)c1ccc(F)cc1", "note": "(centres unmarked) [Example 464, 2-(4-fluorobenzene-sulfonyl)-2-[6-(1-methyl-2-oxo-1,2-dihydropyridin-4-yl)-1,3-benzothiazol-2-yl]-N-({[2-(propan-2-yloxy)ethyl]carbamoyl}methyl)acetamide]", "IC50": 0.045}, {"smiles": "CC(C)OCCNC(=O)CNC(=O)C(c1nc2cc(F)cc(-c3ccc(F)nc3)c2s1)S(=O)(=O)c1ccc(F)cc1", "note": "(centres unmarked) [Example 465, 2-[5-fluoro-7-(6-fluoropyridin-3-yl)-1,3-benzothiazol-2-yl]-2-(4-fluorobenzene-sulfonyl)-N-({[2-(propan-2-yloxy)ethyl]carbamoyl}methyl)acetamide]", "IC50": 0.053}, {"smiles": "CC(C)OCCNC(=O)CNC(=O)C(c1nc2cc(F)cc(-c3cnc(C4CC4)nc3)c2s1)S(=O)(=O)c1ccc(F)cc1", "note": "(centres unmarked) [Example 466, 2-[7-(2-cyclopropyl-pyrimidin-5-yl)-5-fluoro-1,3-benzothiazol-2-yl]-2-(4-fluorobenzene-sulfonyl)-N-({[2-(propan-2-yloxy)ethyl]carbamoyl}methyl)acetamide]", "IC50": 0.157}, {"smiles": "O=C(CNC(=O)C(c1nc2ccc(-c3ccc(F)nc3)cc2s1)S(=O)(=O)c1cccnc1)NC1CC1", "note": "(centres unmarked) [Example 467, N-[(cyclopropyl-carbamoyl)methyl]-2-[6-(6-fluoropyridin-3-yl)-1,3-benzothiazol-2-yl]-2-(pyridine-3-sulfonyl) acetamide]", "IC50": 0.193}, {"smiles": "O=C(CNC(=O)C(c1nc2ccc(-c3ccc4c(c3)CNC4=O)cc2s1)S(=O)(=O)c1cccnc1)NC1CC1", "note": "(centres unmarked) [Example 468, N-[(cyclopropyl-carbamoyl)methyl]-2-[6-(1-oxo-2,3-dihydro-1H-isoindol-5-yl)-1,3-benzothiazol-2-yl]-2-(pyridine-3-sulfonyl) acetamide]", "IC50": 0.006}, {"smiles": "Cc1ncc(-c2cc(C)c3nc(C(C(=O)NCC(=O)NC4CC4)S(=O)(=O)c4ccc(F)cc4)sc3c2)cn1", "note": "(centres unmarked) [Example 469, N-[(cyclopropyl-carbamoyl)methyl]-2-(4-fluorobenzene-sulfonyl)-2-[4-methyl-6-(2-methylpyrimidin-5-yl)-1,3-benzothiazol-2-yl]acetamide]", "IC50": 0.041}, {"smiles": "CC(C)n1cc(-c2cc(F)c3nc(C(C(=O)NCC(=O)NC4CC4)S(=O)(=O)c4ccc(F)cc4)sc3c2)ccc1=O", "note": "(centres unmarked) [Example 470, N-[(cyclopropyl-carbamoyl)methyl]-2-{4-fluoro-6-[6-oxo-1-(propan-2-yl)-1,6-dihydropyridin-3-yl]-1,3-benzothiazol-2-yl}-2-(4-fluorobenzene-sulfonyl)acetamide]", "IC50": 0.016}, {"smiles": "Cc1ncc(-c2cc(F)c3nc(C(C(=O)NCC(=O)NC4CC4)S(=O)(=O)c4ccc(F)cc4)sc3c2)cn1", "note": "(centres unmarked) [Example 471, N-[(cyclopropyl-carbamoyl)methyl]-2-[4-fluoro-6-(2-methylpyrimidin-5-yl)-1,3-benzothiazol-2-yl]-2-(4-fluorobenzene-sulfonyl)acetamide]", "IC50": 0.023}, {"smiles": "O=C(CNC(=O)C(c1nc2c(F)cc(-c3ccc(F)nc3)cc2s1)S(=O)(=O)c1ccc(F)cc1)NC1CC1", "note": "(centres unmarked) [Example 472, N-[(cyclopropyl-carbamoyl)methyl]-2-[4-fluoro-6-(6-fluoropyridin-3-yl)-1,3-benzothiazol-2-yl]-2-(4-fluorobenzene-sulfonyl)acetamide]", "IC50": 0.023}, {"smiles": "Cn1ccc(-c2cc(F)c3nc(C(C(=O)NCC(=O)NC4CC4)S(=O)(=O)c4ccc(F)cc4)sc3c2)cc1=O", "note": "(centres unmarked) [Example 473, N-[(cyclopropyl-carbamoyl)methyl]-2-[4-fluoro-6-(1-methyl-2-oxo-1,2-dihydropyridin-4-yl)-1,3-benzothiazol-2-yl]-2-(4-fluorobenzene-sulfonyl)acetamide]", "IC50": 0.077}, {"smiles": "O=C(CNC(=O)C(c1nc2c(F)cc(-c3cncnc3)cc2s1)S(=O)(=O)c1ccc(F)cc1)NC1CC1", "note": "(centres unmarked) [Example 474, N-[(cyclopropyl-carbamoyl)methyl]-2-[4-fluoro-6-(pyrimidin-5-yl)-1,3-benzothiazol-2-yl]-2-(4-fluorobenzene-sulfonyl)acetamide]", "IC50": 0.116}, {"smiles": "O=C(CNC(=O)C(c1nc2c(F)cc(-c3ccc4[nH]c(=O)ccc4c3)cc2s1)S(=O)(=O)c1ccc(F)cc1)NC1CC1", "note": "(centres unmarked) [Example 475, N-[(cyclopropyl-carbamoyl)methyl]-2-[4-fluoro-6-(2-oxo-1,2-dihydroquinolin-6-yl)-1,3-benzothiazol-2-yl]-2-(4-fluorobenzene-sulfonyl)acetamide]", "IC50": 0.007}, {"smiles": "O=C(CNC(=O)C(c1nc2c(F)cc(-c3cnc(C4CC4)nc3)cc2s1)S(=O)(=O)c1ccc(F)cc1)NC1CC1", "note": "(centres unmarked) [Example 476, N-[(cyclopropyl-carbamoyl)methyl]-2-[6-(2-cyclopropyl-pyrimidin-5-yl)-4-fluoro-1,3-benzothiazol-2-yl]-2-(4-fluorobenzene-sulfonyl)acetamide]", "IC50": 0.051}, {"smiles": "O=C(CNC(=O)C(c1nc2c(F)cc(-c3ccc4c(c3)C(=O)NC4)cc2s1)S(=O)(=O)c1ccc(F)cc1)NC1CC1", "note": "(centres unmarked) [Example 477, N-[(cyclopropyl-carbamoyl)methyl]-2-[4-fluoro-6-(3-oxo-2,3-dihydro-1H-isoindol-5-yl)-1,3-benzothiazol-2-yl]-2-(4-fluorobenzene-sulfonyl)acetamide]", "IC50": 0.068}, {"smiles": "COC(=O)Nc1ccc(-c2cc3sc(C(C(=O)NCC(=O)NC4CC4)S(=O)(=O)c4ccc(F)cc4)nc3cc2F)cc1", "note": "(centres unmarked) [Example 478, methyl N-{4-[2-({[(cyclopropyl-carbamoyl)methyl]carbamoyl}(4-fluorobenzene-sulfonyl)methyl)-5-fluoro-1,3-benzothiazol-6-yl]phenyl}carbamate]", "IC50": 0.002}, {"smiles": "O=C(CNC(=O)C(c1nc2cc(F)c(-c3ccc(-n4ccccc4=O)cc3)cc2s1)S(=O)(=O)c1ccc(F)cc1)NC1CC1", "note": "(centres unmarked) [Example 479, N-[(cyclopropyl-carbamoyl)methyl]-2-{5-fluoro-6-[4-(2-oxo-1,2-dihydropyridin-1-yl)phenyl]-1,3-benzothiazol-2-yl}-2-(4-fluorobenzene-sulfonyl)acetamide]", "IC50": 0.009}, {"smiles": "O=C(CNC(=O)C(c1nc2ccc(-c3cncnc3)cc2s1)S(=O)(=O)N1CCOCC1)NC1CC1", "note": "(centres unmarked) [Example 481, N-[(cyclopropyl-carbamoyl)methyl]-2-(morpholine-4-sulfonyl)-2-[6-(pyrimidin-5-yl)-1,3-benzothiazol-2-yl]acetamide]", "IC50": 0.099}, {"smiles": "O=C(CNC(=O)C(c1nc2ccc(-c3cccnc3F)cc2s1)S(=O)(=O)N1CCOCC1)NC1CC1", "note": "(centres unmarked) [Example 482, N-[(cyclopropyl-carbamoyl)methyl]-2-[6-(2-fluoropyridin-3-yl)-1,3-benzothiazol-2-yl]-2-(morpholine-4-sulfonyl)acetamide]", "IC50": 0.173}]}, {"molecular_target": "Endothelial lipase (EL) (Homo sapiens (Human), UniProt Q9Y5X9)", "experiment": "Endothelial lipase (EL) enzymatic assay with fluorescent substrate A10070 in DMPG vesicles", "format": "biochemical", "conditions": "EL from conditioned media of HT-1080 cells; 30 min preincubation at 37° C.", "summary_of_the_method": "as §1", "units": {"IC50": "µM"}, "values": [{"smiles": "COCCNC(=O)c1ccc(-c2ccc3nc(C(C(=O)NCC(=O)NC4CC4)S(=O)(=O)N4CCOCC4)sc3c2)cc1", "note": "(centres unmarked) [Example 480, 4-[2-({[(Cyclopropylcarbamoyl)methyl]carbamoyl}(morpholine-4-sulfonyl)methyl)-1,3-benzothiazol-6-yl]-N-(2-methoxyethyl)benzamide]", "IC50": 0.004}]}]}
